# Values quoted from earlier work in PMC4331071 (Clinical cancer research : an official journal of the …, 2013).
# Tested on: GRP78
sequence,measurement,value
WIFPWIQL,efficacy among GRP78 binding peptides,highest efficacy
